Source: patent publication US20200147149A1, “COMPOSITIONS AND METHODS FOR THE MODULATION OF GUT SENSORY CELLS” (Duke University, priority 2017, published 2020)
Entries after “also recorded” stand apart in the source; their conditions may differ.

How the values were obtained:
[1] = test system: intestinal CCK enteroendocrine cells; assay: Calcium imaging (GCaMP6s) of enteroendocrine cells in CckCRE_tdTomato intestinal organoids; assay type: cell-based, mouse; settings: n=3
Protocol: (§1) For neurons, Phox2bCRE_GCaMP6s (n=3) nodose neurons were dissociated and plated. Nodose ganglia were dissected and digested in Liberase (Roche, 5401054001). Neurons were washed and filtered through a 70 μm cell strainer, then plated on 12 mm coverslips and placed in an incubator overnight. Cells were imaged 1-2 days later. Coverslips were placed in the recording chamber of a Zeiss Examiner Z1 and imaged with a Hamamatsu camera (Orca-flash4.0; C11440) using the Zeiss ZEN software package. For enteroendocrine cells, CckCRE_tdTomato organoids with transduced with ΔG-rabies-GCaMP6s. Organoids were imaged using multi photon microscopy 3-4 days after transduction. Imaging buffer (in mM: 140 NaCl, 5 KCl, 2 CaCl2, 2 MgCl2, 10 HEPES) was continuously perfused over the coverslips. […] Images were analyzed with Fiji ([…]), and cell traces were plotted with Matlab.

[2] = test system: vagal nodose neurons connected to enteroendocrine cells; assay: Patch-clamp electrophysiology of nodose neurons co-cultured with enteroendocrine cells; assay type: cell-based, mouse; settings: D-glucose (10 mM); for excitatory postsynaptic potentials and action potentials in connected neurons: co-culture
Protocol: The small intestines of CckGFP and CckCRE_ChR2-tdTomato mice were dissected and flushed twice with cold PBS. The intestine was cut open lengthwise and cut again into ˜1 cm pieces. Tissue pieces were incubated with 3 mM EDTA at 4° C. for 15 minutes then at 37° C. for 15 minutes. New cold PBS was added and villi and crypts were mechanically detached. Villi and crypts were spun down and further digested in Collagenase and Dispase. Cells were spun down and re-suspended in L-15 media with 5% FBS and DNase to prevent cell clumping. Cells were passed through a 70 μm then 40 μm cell strainer to isolate single cells. Then cells were sorted using Fluorescence Activated Cell sorting (BD FACSAria) selecting for GFP fluorescence cells. Cells were sorted into culture media: 10 μl/ml Glutamax, 10 μl/ml HEPES, 20 μl/ml Penicillin-Streptomycin, 10 μl/ml N2 supplement, 20 μl/ml B27 supplement, 0.25 μl/ml EGF, 0.5 μl/ml Noggin, 1 μl/ml r-Spondin and 1 μl/ml NGF in Advanced DMEM/f12. Sorted cells were plated on Matrigel coated 12 mm coverslips at a concentration of ˜8-10 k enteroendocrine cells per coverslip. Nodose neurons were dissected and incubated with Liberase digestion enzyme. Enzyme was washed off and replaced with media. Single cells were dissociated by mechanical force and filtered through a 70 μm cell strainer. Neurons in media were plated evenly on up to 8 coverslips with enteroendocrine cells. Patch-clamp electrophysiology was performed 1-5 days after plating.
Enteroendocrine cells and nodose neurons were co-cultured as described above. Co-culture coverslips were placed in the recording chamber filled with extracellular solution. Recordings were carried out at room temperature using a MultiClamp 700B amplifier (Axon Instruments), digitized using a Digidata 1550A (Axon Instruments) interface, and pClamp software (Axon Instruments) for data acquisition. Data was filtered at 1 kHz and sampled at 10 kHz. CCK-producing enteroendocrine cells were identified by GFP expression and neurons by their morphology and lack of fluorescence. Recordings were made using borosilicate glass pipettes pulled to ˜3.5 MΩ resistance [DVB4]. Extracellular solution contained (in mM): 140 NaCl, 5 KCl, 2 CaCl2, 2 MgCl2, 10 HEPES, pH 7.4 (300-305 mOsmol). For voltage-clamp recordings, intracellular solution contained (in mM): 140 CsF, 10 NaCl, 0.1 CaCl2, 2 MgCl2, 1.1 EGTA, 10 HEPES, 10 sucrose (pH, 7.25, 290-295 mOsmol). For current-clamp recordings, intracellular solution contained (in mM): 140 KCl, 0.5 EGTA, 5 HEPES, 3 Mg-ATP, 10 sucrose (pH, 7.25, 290-295 mOsmol). Neurons were held at −70 mV for 5 min after patching in voltage-clamp mode (to stabilize cells), and then switched to the current-clamp mode. At the resting membrane potential, cell properties such as input resistance, and spike threshold were determined using 200 ms steps from −40 pA to 100 pA in 20 pA increment. […] After glucose exposure, neurons were tested with a current or voltage pulse to confirm the health of the cell. For glutamate receptor blocker experiments, the […]® Micro-perfusion system (Automate Scientific, Inc.) was used. Once the neuron was patched, the […]® nozzle was brought to within 100 μm of the cell, while extracellular solution was perfusing. Kynurenic acid (3 mM) was perfused, then washed for 5 minutes after and the neuron was tested again. EPSC responses were recorded for 1 second after light stimulation. Data are presented as the mean±S.E.M. and significance was determined using a two-tailed Student's t test.

iGluSnFR-HEK cells = iGluSnFR-HEK cells cultured alone, multiphoton imaging; assay type: cell-based; settings: D-glucose 40 mM
Protocol: HEK 293/17 cells (ATCC CRL-11268) were maintained in DMEM (Gibco 11965) supplemented with 10% FBS (Corning 35-010-CV), Glutamax, and non-essential amino acids (both Gibco). Cells were transfected with 1 ug plasmid pCMV(MinDis) iGluSnFR (Addgene 41732) using 1 ul Lipofectamine 2000 in Optimem (Gibco) in 24-well plates.
The 5.2 Kb iGluSnFR (pCMV(MinDis).iGluSnFR was a gift from Loren Looger; Addgene plasmid #41732) was moved to the zeocin resistant backbone of Addgene #51694 (DRH296: FCK-Optopatch2 was a gift from Adam Cohen) as a NdeI+XhoI fragment. The resulting plasmid (pMEK8) was transfected into HEK 293/17 cells (ATCC CRL-11268) using 1 μl Lipofectamine 2000/ug DNA. Cells were maintained in DMEM (Gibco 11965) supplemented with 10% FBS (Corning 35-010-CV), Glutamax, non-essential amino acids (both Gibco) and 3 μl/ml zeocin ([…], Invitrogen).
(§2) CckCRE_tdTomato enteroendocrine cells were isolated as described above. Isolated cells were mixed with iGluSnFR-HEK cells at a ratio of 10:1, then plated on 1% Matrigel coated coverslips. Control iGluSnFR-HEK cells were plated alone. Cells were incubated for 12-18 hours before imaging. Coverslips were imaged using a multiphoton microscopy system (Bruker Ultima IV with a Chameleon Vision II tunable laser). Imaging frames were captured at 1.876 fps, using 920 nm light. Imaging series were analyzed using Fiji (ImageJ), and cell traces were plotted with Excel.

nodose neurons [3] = assay: Calcium imaging of dissociated Phox2bCRE_GCaMP6s nodose neurons; assay type: cell-based, mouse
Protocol: as §1

nodose neurons [4] = assay: Patch-clamp electrophysiology of nodose neurons cultured alone; assay type: cell-based, mouse; settings: 10-20 mM D-glucose
enteroendocrine cells = assay: iGluSnFR-HEK cell and CckCRE_tdTomato enteroendocrine cell co-culture, imaging of glutamate release; assay type: cell-based, mouse; settings: D-glucose 40 mM, n=3 cultures
Protocol: as §2

[5] = 20 mM D-glucose, mice=3, cells=246

O=C[C@H](O)[C@@H](O)[C@H](O)[C@H](O)CO [D-glucose]
magnitude of the sugar response as percent fluorescence of the KCl response ([1]; 20 mM D-glucose, 40 mM KCl control): 56.0±20%
calcium transients, percent of the KCl control response ([1]; D-glucose (10 mM) as printed): 56.0%±20.0
excitatory postsynaptic potentials and action potentials in connected neurons [2]: evoke excitatory postsynaptic potentials and action potentials
excitatory postsynaptic potentials and action potentials in connected neurons ([2]; listed as glucose): evoked EPSCs; also recorded: induced excitatory post-synaptic potentials and action potential spikes
action potentials in the connected neurons (average) ([2]; current-clamp, n=5 pairs): 2±0.32
average current of the excitatory post-synaptic potentials (EPSPs) ([2]; voltage-clamp, n=6): 61.65±15.21 pA
average frequency of the excitatory post-synaptic potentials ([2]; voltage-clamp, n=6): 0.86±0.17 Hz
fluorescence response of iGluSnFR-HEK cells cultured alone (iGluSnFR-HEK cells): did not respond
fluorescence response of iGluSnFR-HEK cells cultured alone (iGluSnFR-HEK cells; listed as Dglucose): not
percent of Fast Blue positive nodose neurons (innervating small intestine) that did not respond (nodose neurons [3]; 20 mM D-glucose, mice=2, cells=73): 100%
percent of nodose neurons that did not respond (nodose neurons [3]; [5]): 97.3±1.9%
percent of nodose neurons that responded (nodose neurons [3]; [5]): 2.7±1.9%
calcium transients in dissociated nodose ganglia neurons (nodose neurons [3]; D-glucose (10 mM) as printed, n=246 cells from 3 mice): did not elicit calcium transients
calcium response in Fast Blue labeled nodose neurons (nodose neurons [3]; D-glucose (20 mM)): no calcium response was observed
excitatory currents / action potentials in nodose neurons cultured alone (nodose neurons [4]): neither excitatory currents nor action potentials were observed
excitatory currents / action potentials in nodose neurons cultured alone (nodose neurons [4]; listed as glucose): did not activate
fluorescence response of iGluSnFR-HEK cells in close proximity to enteroendocrine cells (glutamate release) (enteroendocrine cells): rapidly fluoresced green; also recorded: elicits a response
